Laboratory results reported in US20090191283A1, “TREATMENT OF HEADACHES, NECK PAIN, JOINT PAIN AND INFLAMMATORY-TYPE PAIN” (priority 2008, published 2009).

What was measured:
Assay type in all cases: in vivo, human
[1] = test system: patient with pseudotumor cerebri and morning headache from sleep apnea; test: Treatment of patient with pseudotumor cerebri; settings: for outcome of prior treatment: patient history
Method: (III) Treatment of Patient with Pseudotumor Cerebri
A patient presented with daily pseudotumor cerebri and morning headache from sleep apnea, with an intensity of 10/10. […] Patient was treated with 0.2 mg/hr nitroglycerin patch applied 2×/day to shoulder+3 pills of 250 mg sodium selenite/day (Twin Labs)

[2] = test system: patient with dermatomyositis; test: Treatment of patient with inflammatory arthropathies: dermatomyositis (case report)
Method: (c) A patient presented with a 10/10 pain level from Dermatomyositis, with the following symptoms: morning stiffness, diffuse polyarticular involvement, malaise, proximal muscle weakness, muscle tenderness
Prior treatment included narcotics, antiinflammatories, corticosteroids, disease-modifying anti-rheumatologic drugs (DMARDs) daily.
Treatment: 0.3 mg/hr nitroglycerin patch applied 2×/day (every 12 hours) to shoulder+3 pills of 250 mg sodium selenite/day (Twin Labs)

[3] = test system: patients with rheumatoid arthritis; test: Treatment of patients with inflammatory arthropathies: rheumatoid arthritis (case reports)
Method: Treatment of Patient with Inflammatory Arthropathies […]
(b) A patient presented with Rheumatoid Arthritis with pain levels of 10/10 and the following symptoms: morning stiffness, diffuse polyarticular involvement, malaise, weakness, myalgias
Prior treatment included narcotics, antiinflammatories, corticosteroids daily.
Treatment: 0.1 mg/hr nitroglycerin patch applied 2×/day (every 12 hours) to shoulder+2 pills of 250 mg sodium selenite/day (Twin Labs) […]

[4] = test system: patients with migraine headaches; test: Treatment of patients with migraine headaches (case reports)
Method: (I) Treatment of Patients with Migraine Headaches […]
(d) A patient presented with an every other day migraine headache with an intensity of 10/10, and the patient stated “The headaches were so bad that I was unable to work or enjoy my life.” Prior treatment included extensive workup by neurologists.
Treatment: 0.6 mg/hr nitroglycerin patch applied 2×/day (every 12 hours) to ankle for 1 week then shoulder+2 pills of 250 mg sodium selenite/day (Twin Labs) […]

[5] = test system: patients with cervicogenic tension headaches; test: Treatment of patients with cervicogenic tension headaches (case reports)
Method: (II) Treatment of Patients with Cervicogenic Tension Headaches
(a) A patient presented with cervicogenic tension headache with “severe” neck pain with an intensity of 7 or 8/10. The frequency of headaches was everyday and prior treatment included narcotics, NTHEs, Tylenol.
Treatment: 0.4 mg/hr nitroglycerin patch initially applied 1×/day to shoulder+2 pills of 250 mg sodium selenite/day (Twin Labs)
(b) A patient presented with cervicogenic headache with an intensity of 3-4×/wk. Prior treatment included narcotics, Tylenol, NTHEs. Patient was treated with 0.2 mg/hr nitroglycerin patch applied 1×/day applied to shoulder+2 pills of 250 mg sodium selenite/day (Twin Labs)
(c) A patient presented with migraine/cervicogenic headache with a frequency of everyday and an intensity of 7/10. Prior treatment included narcotics, NTHEs, acetaminophen, morphine cream.
Treatment: 0.4 mg/hr nitroglycerin patch applied 1×/day applied to shoulder+2 pills of 250 mg sodium selenite/day (initially) then 0.1 mg/hr nitroglycerin patch applied 1×/day applied to ankle+2 pills of 250 mg sodium selenite/day
(d) A patient presented with a daily cervicogenic tension headache, with an intensity of 10/10. Prior treatment included narcotics, Tylenol, NTHEs.
Treatment: 0.2 mg/hr nitroglycerin patch applied 1×/day to shoulder+3 pills of 250 mg sodium selenite/day (Twin Labs)
(e) A patient presented with a daily cervicogenic tension headache, with an intensity of 10/10. Prior treatment included narcotics, Tylenol, NTHEs, trigger point injections
Treatment: 0.2 mg/hr nitroglycerin patch applied 1×/day to shoulder+2 pills of 250 mg sodium selenite/day (Twin Labs)
(f) A patient presented with a daily cervicogenic tension headache, with an intensity of 7-8/10. Prior treatment included narcotics, Tylenol, NTHEs, trigger point injections
(g) A patient presented with a daily cervicogenic tension headache, with an intensity of 9-10/10. Prior treatment included narcotics, Tylenol, NTHEs, trigger point injections, BoTox which worked well for 3 months but is too expensive
Treatment: 0.2 mg/hr nitroglycerin patch applied 2×/day to shoulder+3 pills of 250 mg sodium selenite/day (Twin Labs).
(h) A patient presented with a daily cervicogenic tension headache with an intensity of 5/10. Prior treatment included narcotics, Tylenol, NTHEs, trigger point injections.
(i) A patient presented with a daily cervicogenic tension headache, with an intensity of 7-8/10. Prior treatment included narcotics, Tylenol, NTHEs, trigger point injections

[6] = test system: patient with hemicrania continua; test: Treatment of patient with hemicrania continua; settings: patient history
Method: (II) Treatment of Patient with Hemicrania Continua
A patient presented with daily hemicrania continua with an intensity of 8-9/10. […] Patient was treated with 0.2 mg/hr nitroglycerin patch applied 2×/day to shoulder+2 pills of 250 mg sodium selenite/day (Twin Labs).

[7] = dermatomyositis patient (c), patient history

SMILES: CC(=O)Nc1nnc(S(N)(=O)=O)s1 [Diamox]
- outcome of prior treatment [1]: without much success

SMILES: CNS(=O)(=O)Cc1ccc2[nH]cc(CCN(C)C)c2c1 [Imitrex, sumatriptan]
- effect of Imitrex on treatment-induced worsened headaches ([1]; patient on nitroglycerin patch + selenite): improved

SMILES: C[C@]12C=CC(=O)C=C1CC[C@@H]1[C@@H]2C(=O)C[C@@]2(C)[C@H]1CC[C@]2(O)C(=O)CO [Prednisone]
- initial response to prior treatment [2, 7]: excellent response
- side effects of prior treatment [2, 7]: steroid-induced osteoporotic rib and wrist fractures
- side effects of prior treatment ([3]; RA patient (b), patient history, daily corticosteroids): Vertebral fractures and osteonecrosis

SMILES: CNC[C@H](O)c1cccc(O)c1.Cl [SUDAFED, phenylephrine hydrochloride]
- alleviation of treatment-induced headache by SUDAFED ([2]; dermatomyositis patient (c) on nitroglycerin patch + selenite): partially alleviated
- alleviation of treatment-induced headache by SUDAFED ([4]; migraine patient (a) on nitroglycerin patch + selenite): partially alleviated
- alleviation of treatment-induced headache by SUDAFED ([4]; migraine patient (b) on nitroglycerin patch + selenite): partially alleviated
- alleviation of treatment-induced headache by SUDAFED ([4]; migraine patient (d) on nitroglycerin patch + selenite): not alleviated
- alleviation of treatment-induced headache by SUDAFED ([4]; migraine patient (h) on nitroglycerin patch + selenite): partially alleviated
- alleviation of treatment-induced headache by SUDAFED ([4]; migraine patient on nitroglycerin patch + selenite): partially alleviated
- alleviation of treatment-induced headache by SUDAFED ([4]; migraine/tension patient (c) on nitroglycerin patch + selenite): not alleviated
- alleviation of treatment-induced headache by SUDAFED ([5]; cervicogenic patient (a) on nitroglycerin patch + selenite): unalleviated
- alleviation of treatment-induced headache by SUDAFED ([5]; cervicogenic patient (g) on nitroglycerin patch + selenite): partially alleviated
- alleviation of treatment-induced headache by SUDAFED ([5]; cervicogenic patient (i) on nitroglycerin patch + selenite): totally alleviated
- alleviation of treatment-induced headache by SUDAFED ([5]; cervicogenic patient on nitroglycerin patch + selenite): alleviated
- alleviation of treatment-induced headache by SUDAFED ([3]; RA patient (a) on nitroglycerin patch + selenite): partially alleviated
- alleviation of treatment-induced headache by SUDAFED ([3]; RA patient (b) on nitroglycerin patch + selenite): partially alleviated
- alleviation of treatment-induced headache by SUDAFED ([3]; RA patient (d) on nitroglycerin patch + selenite): partially alleviated
- alleviation of treatment-induced headache by SUDAFED ([3]; RA patient (e) on nitroglycerin patch + selenite): partially alleviated

SMILES: CC1(C)O[C@@H]2[C@@H](CO[C@@]3(COS(N)(=O)=O)OC(C)(C)O[C@@H]23)O1 [Topamax]
- outcome of prior treatment [1]: without much success
- outcome of prior treatment ([4]; migraine patient (d), patient history): without success

SMILES: CC(=O)Nc1ccc(O)cc1 [Tylenol]
- outcome of prior treatment [1]: without much success
- outcome of prior treatment [6]: without success
